Data from patent publication US4376765A, “Medicaments, their preparation and compositions containing same” (Institut International de Pathologie Cellulaire et …, priority 1980, dated 1983).
Values belong to the compound of their own block, whether it stands above or below them.

Legend:
[1] = tested on: lysosomal peptidase / purified lysosomal enzymes; test: hydrolysis under conditions of lysosomal digestion (release of free drug); format: in vitro ADME; settings: for daunorubicine regenerated by the action of lysosomal peptidase: pH 6.0, aminoacid linked to daunorubicine
From the text: According to the invention, the arm is of peptidic nature and contains preferably 3 or 4 aminoacids. It is particularly important that the aminoacid being bound to the free amino function of the drug through its carboxylic function, has an asymmetric carbon atom and has the L-configuration because the peptidases or the lysosomal hydrolases only cut the peptidic bonds in the alpha position with respect to an asymmetric carbon. The aminoacid composing the peptidic spacer arm could be selected among the following L-aminoacids: α-aminobutyric acid, γ-aminobutyric acid, ε-aminocaproic acid, arginine, asparagine, aspartic acid, cysteic acid, cysteine, glutamine, glutamic acid, glycine, histidine, 4-hydroxyproline, […]. Of particular interest to play this function is L-leucine. […] In addition, a much higher rate of release of the free drug is obtained when the number of aminoacids making up the peptidic arm increases and may be as high as 78% when the intermediate peptide is made of a sequence of 4 aminoacids. Thus according to the invention, the intermediate "spacer arm" preferably is represented by the sequence

[2] = stability in the serum; format: in vitro ADME
From the text: According to the invention, the arm is of peptidic nature and contains preferably 3 or 4 aminoacids. It is particularly important that the aminoacid being bound to the free amino function of the drug through its carboxylic function, has an asymmetric carbon atom and has the L-configuration because the peptidases or the lysosomal hydrolases only cut the peptidic bonds in the alpha position with respect to an asymmetric carbon. The aminoacid composing the peptidic spacer arm could be selected among the following L-aminoacids: α-aminobutyric acid, γ-aminobutyric acid, ε-aminocaproic acid, arginine, asparagine, aspartic acid, cysteic acid, cysteine, glutamine, glutamic acid, glycine, histidine, 4-hydroxyproline, […]. Of particular interest to play this function is L-leucine.

[3] = tested on: L 1210 leukemia; test: mice inoculated intraperitoneally with L 1210 leukemia, treated by intraperitoneal route; format: in vivo; settings: for activity against L 1210 leukemia in mice compared with daunorubicine or L-leucyl-daunorubicine: i.p. inoculation, i.p. treatment; for activity against L 1210 leukemia in mice compared with daunorubicine or L-leucyl-daunorubicine / toxicity compared with daunorubicine or L-leucyl-daunorubicine: equal doses expressed as daunorubicine; for toxicity compared with daunorubicine or L-leucyl-daunorubicine: mice, i.p.
[4] = tested on: L 1210 leukemia cells; test: in vitro growth inhibition of L 1210 leukemia cells; format: cell-based; settings: 72 hours of culture; concentration near 10 μg/cm^3
Procedure: Thus the products in which the drug is daunorubicine inhibit in vitro the growth of cancerous cells such as cells of L 1210 leukemia in an appropriate medium. For example, after 72 hours of culture, BSA-succinyl-L-Ala-L-Leu-L-Ala-L-Leu-Daunorubicine at a concentration near 10 μg/cm^3, causes 90% of inhibition of the growth of L 1210 leukemia cells.

[5] = 5 mg/kg expressed as daunorubicine, mice with L 1210 leukemia

- regeneration of the free drug when submitted to lysosomal digestion [1]: regenerate rapidly the free drug
- stability in the serum [2]: stable in the serum
Compound: COc1cccc2c1C(=O)c1c(O)c3c(c(O)c1C2=O)C[C@@](O)(C(=O)CO)C[C@@H]3O[C@H]1C[C@H](NC(=O)[C@@H](N)CC(C)C)[C@H](O)[C@H](C)O1 [N-L-leucyl-doxorubicine]

- regeneration of the free drug when submitted to lysosomal digestion [1]: regenerate rapidly the free drug
- free daunorubicine released ([1]; two hours hydrolysis at pH 4.5, lysosomal digestion): 65%
- free daunorubicine released ([1]; two hours hydrolysis at pH 6.0, lysosomal digestion): 90%
- stability in the serum [2]: stable in the serum
Compound: COc1cccc2c1C(=O)c1c(O)c3c(c(O)c1C2=O)C[C@@](O)(C(C)=O)C[C@@H]3O[C@H]1C[C@H](NC(=O)[C@@H](N)CC(C)C)[C@H](O)[C@H](C)O1 [N-L-leucyl-daunorubicine]

- regeneration of the free drug when submitted to lysosomal digestion [1]: regenerate rapidly the free drug
- stability in the serum [2]: stable in the serum
Compound: COc1cc(NC(C)CCCNC(=O)[C@@H](N)CC(C)C)c2ncccc2c1 (stereo partly drawn) [N-L-leucyl-primaquine]

Continued, compound first:

Compound: CC[C@H](C)[C@H](N)C(=O)O [L-isoleucine]
- daunorubicine regenerated by the action of lysosomal peptidase [1]: 60%

Compound: COc1cccc2c1C(=O)c1c(O)c3c(c(O)c1C2=O)C[C@@](O)(C(C)=O)C[C@@H]3O[C@H]1C[C@H](N)[C@H](O)[C@H](C)O1 [daunorubicine, reference compound]
- increase of life span (ILS) [3, 5]: about 7%
- toxicity at the dose ([3]; 5 mg/kg, mice with L 1210 leukemia): already toxic at that dose

Compound: fetuine-succinyl-L-Ala-L-Leu-L-Ala-L-Leu-daunorubicine: succinylated fetuine coupled with L-alanyl-L-leucyl-L-alanyl-L-leucyl-daunorubicine
- increase of life span (ILS) [3, 5]: ~194%
- surviving mice after 30 days of observation ([3]; 5 mg/kg expressed as daunorubicine, of 10 mice): 8
- activity against L 1210 leukemia in mice compared with daunorubicine or L-leucyl-daunorubicine [3]: markedly better activity than that of daunorubicine or L-leucyl-daunorubicine
- toxicity compared with daunorubicine or L-leucyl-daunorubicine [3]: less toxicity

Compound: BSA-succinyl-L-Ala-L-Leu-L-Ala-L-Leu-Daunorubicine: succinyl-alanyl-leucyl-alanyl-leucyl-daunorubicine coupled with bovine serum albumin
- inhibition of the growth of L 1210 leukemia cells [4]: 90%
- activity against L 1210 leukemia in mice compared with daunorubicine or L-leucyl-daunorubicine [3]: markedly better activity than that of daunorubicine or L-leucyl-daunorubicine
- toxicity compared with daunorubicine or L-leucyl-daunorubicine [3]: less toxicity

Compound: N[C@@H](Cc1ccc(O)cc1)C(=O)O [L-tyrosine]
- daunorubicine regenerated by the action of lysosomal peptidase [1]: 70%
